In test [1] the target is T1, PIP4K 2A (Homo sapiens, UniProt P48426).
T1 sequence (P48426 1-406): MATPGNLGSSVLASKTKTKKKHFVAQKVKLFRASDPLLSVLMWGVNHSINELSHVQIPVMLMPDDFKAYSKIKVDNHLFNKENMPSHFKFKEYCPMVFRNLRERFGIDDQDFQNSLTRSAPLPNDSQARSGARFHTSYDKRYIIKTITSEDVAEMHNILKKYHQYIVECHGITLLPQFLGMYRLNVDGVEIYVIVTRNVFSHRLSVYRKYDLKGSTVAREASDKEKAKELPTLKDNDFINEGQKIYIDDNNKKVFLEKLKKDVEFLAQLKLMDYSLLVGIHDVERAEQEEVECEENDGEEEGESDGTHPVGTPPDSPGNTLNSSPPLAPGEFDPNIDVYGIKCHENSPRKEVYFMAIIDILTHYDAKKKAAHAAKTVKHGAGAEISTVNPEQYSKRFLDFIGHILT
Kind of test: ADP-glo kinase assay PIP4K 2A. The settings on record: compounds listed under IC50 bin headings. In kind it is biochemical. More on the design: 4 nM PIP4K2A (full length protein, SignalChem); purchased SignalChem. The method, boiled down: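 Inhibition was calculated versus DMSO controls from ADP-Glo luminescence and fitted to IC50 over a 10-point, threefold series. Compound was first pre-incubated 15 min at room temperature with PIP4K2A (full-length; 4 nM in the enzyme/substrate mix) and PI(5)P diC8 (100 μM in that mix). The reaction then ran for 1 h after adding 60 μM ATP solution, in MOPS pH 7.2/MgCl2/Tween buffer.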
(In ADP-Glo the light output rises with the ADP produced.)

Test [2] concerns the target T2, PIP4K2B (Homo sapiens, UniProt P78356).
T2 construct: made in house; host or cells: E. coli
T2 sequence (P78356 1-416): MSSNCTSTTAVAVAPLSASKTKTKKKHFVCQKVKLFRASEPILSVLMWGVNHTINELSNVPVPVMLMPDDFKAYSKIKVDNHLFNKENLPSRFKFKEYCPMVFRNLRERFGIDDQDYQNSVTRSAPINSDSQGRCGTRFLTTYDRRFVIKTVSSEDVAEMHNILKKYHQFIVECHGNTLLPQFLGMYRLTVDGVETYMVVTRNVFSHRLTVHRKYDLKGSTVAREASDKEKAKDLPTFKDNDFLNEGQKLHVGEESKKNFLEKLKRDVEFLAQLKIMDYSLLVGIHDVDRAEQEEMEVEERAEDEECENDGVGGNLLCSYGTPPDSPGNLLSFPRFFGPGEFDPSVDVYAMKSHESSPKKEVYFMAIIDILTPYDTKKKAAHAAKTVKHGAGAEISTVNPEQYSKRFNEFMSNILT
As to the kind of experiment: Trans-FI P kinase assay PIP4K2B (PIP4KtypeIIB inhibition assay). In kind it is biochemical. The settings on record: compounds listed under IC50 bin headings; 100 uM GTP; read-out: Trans-FI P kinase assays: PIP4K2B IC50. The method, boiled down: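 Transcreener FI fluorescence read-out of GDP formed by E. coli-expressed GST-PIP4K2B (5 nM) using 100 uM GTP and 80 uM PI5P with DOPE carrier lipid, pH 7.3, 2 h reaction. Compounds (up to 4.8 uM) were preincubated with enzyme 1 h at 27 C; IC50 fitted from residual activity relative to no-inhibitor control.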

Where only a bound is given, the exact number is not on record here.

The term IC50 denotes the concentration that inhibits the measured activity by half.

Regarding `CC1(C)Oc2cc(N3CCCC3=O)c(F)cc2-c2cnc(Nc3cnc4c(c3)N3C(=O)CC[C@H]3CO4)nc21` [Example 190, (S)-2-((9-fluoro-5,5-dimethyl-8-(2-oxopyrrolidin-1-yl)-5H-chromeno[3,4-d]pyrimidin-3-yl)amino)-6,6a,7,8-tetrahydro-9H-pyrido[2,3-b]pyrrolo[1,2-d][1,4]oxazin-9-one], the IC50 in test [1] was at most 0.001 µM; in test [2], 0.001 to 0.01 µM.

Turning to `CC1Oc2cc(N3CCCC3=O)ccc2-c2cnc(Nc3cnc4c(c3)N3C(=O)CC[C@@H]3CO4)cc21` (stereo partly drawn) [Example 180, (6aR)-2-((5-methyl-8-(2-oxopyrrolidin-1-yl)-5H-chromeno[4,3-c]pyridin-3-yl)amino)-6,6a,7,8-tetrahydro-9H-pyrido[2,3-b]pyrrolo[1,2-d][1,4]oxazin-9-one], the 50% inhibitory concentration (IC50) in test [1] was at most 0.001 µM; in test [2], 0.001 to 0.01 µM.

As for `CC(=O)Nc1cc(Nc2cc3c(cn2)-c2ccc(N4CCCC4=O)cc2OC3C)cnn1` (stereo not drawn) [Example 129, N-(5-((5-methyl-8-(2-oxopyrrolidin-1-yl)-5H-chromeno[4,3-c]pyridin-3-yl)amino)pyridazin-3-yl)acetamide], the values for the half-inhibitory concentration (IC50) in test [1] and in test [2] were 0.001 to 0.01 µM and 0.01 to 0.1 µM, respectively.

For the molecule `COc1ccc(C(=O)Nc2cncc(Nc3cc4c(cn3)-c3ccc(N5CCCC5=O)cc3OC4C)c2)cc1` (stereo not drawn) [Example 122, 4-methoxy-N-(5-((5-methyl-8-(2-oxopyrrolidin-1-yl)-5H-chromeno[4,3-c]pyridin-3-yl)amino)pyridin-3-yl)benzamide], the IC50 in test [1] lay in the range of 0.001 to 0.01 µM; in test [2], 0.01 to 0.1 µM.

With `CC1Oc2cc(N3CCCC3=O)ccc2-c2cnc(Nc3cncc(NC(=O)c4ccc(NC=O)c(O)c4)c3)cc21` (stereo not drawn) [Example 109A, 4-formamido-3-hydroxy-N-(5-((5-methyl-8-(2-oxopyrrolidin-1-yl)-5H-chromeno[4,3-c]pyridin-3-yl)amino)pyridin-3-yl)benzamide], the IC50 in test [1] was in the range of 0.001 to 0.01 µM; in test [2], 0.01 to 0.1 µM.

For `O=C1CCCN1c1ccc(-c2ccc(Nc3cnc4c(c3)N3C(=O)C5(CC5)C[C@H]3CO4)nc2)cc1F` [Example 197, (S)-2′-((5-(3-fluoro-4-(2-oxopyrrolidin-1-yl)phenyl)pyridin-2-yl)amino)-6a′,7′-dihydro-6′H,9′H-spiro[cyclopropane-1,8′-pyrido[2,3-b]pyrrolo[1,2-d][1,4]oxazin]-9′-one], the IC50 in test [1] and in test [2] was 0.001 to 0.01 µM each time.

As for `COC(=O)Nc1cncc(Nc2cc3c(cn2)-c2ccc(N4CCCC4=O)cc2OC3C)c1` (stereo not drawn) [Example 98, methyl (5-((5-methyl-8-(2-oxopyrrolidin-1-yl)-5H-chromeno[4,3-c]pyridin-3-yl)amino)pyridin-3-yl)carbamate], the concentration for half-maximal inhibition (IC50) lay in the range of 0.001 to 0.01 µM in test [1] and 0.01 to 0.1 µM in test [2].

In the case of `CC1Oc2cc(N3CCCC3=O)ccc2-c2cnc(Nc3cnc4c(c3)N3C(=O)OC[C@H]3CO4)cc21` (stereo partly drawn) [Example 158, (3aR)-8-((5-methyl-8-(2-oxopyrrolidin-1-yl)-5H-chromeno[4,3-c]pyridin-3-yl)amino)-3a,4-dihydro-1H,3H-oxazolo[3,4-d]pyrido[2,3-b][1,4]oxazin-1-one], the IC50 in test [1] is at most 0.001 µM; in test [2] it was 0.001 to 0.01 µM.

`CC1Oc2cc(N3CCCC3=O)ccc2-c2cnc(Nc3cncc(NC(=O)c4cc5ccccc5[nH]4)c3)cc21` (stereo not drawn) [Example 141, N-(5-((5-methyl-8-(2-oxopyrrolidin-1-yl)-5H-chromeno[4,3-c]pyridin-3-yl)amino)pyridin-3-yl)-1H-indole-2-carboxamide]: the IC50 was in the range of 0.001 to 0.01 µM in test [1] and 0.01 to 0.1 µM in test [2].

For `CC1Oc2cc(N3CCCC3=O)ccc2-c2cnc(Nc3cncc(NC(=O)c4ccnc(N)c4)c3)cc21` (stereo not drawn) [Example 115, 2-amino-N-(5-((5-methyl-8-(2-oxopyrrolidin-1-yl)-5H-chromeno[4,3-c]pyridin-3-yl)amino)pyridin-3-yl)isonicotinamide], the IC50 is at most 0.001 µM in test [1] and 0.001 to 0.01 µM in test [2].

With `CC1Oc2cc(N3CCCC3=O)c(F)cc2-c2cnc(Nc3cnc4c(c3)OCCO4)cc21` (stereo not drawn) [Example 166, 1-(3-((2,3-dihydro-[1,4]dioxino[2,3-b]pyridin-7-yl)amino)-9-fluoro-5-methyl-5H-chromeno[4,3-c]pyridin-8-yl)pyrrolidin-2-one], the figures for the IC50 in test [1] and in test [2] were 0.001 to 0.01 µM and 0.01 to 0.1 µM, respectively.

In the case of `CC1Oc2cc(N3CCCC3=O)c(F)cc2-c2cnc(Nc3cncc(N4CCNC4=O)c3)cc21` (stereo not drawn) [Example 151, 1-(5-((9-fluoro-5-methyl-8-(2-oxopyrrolidin-1-yl)-5H-chromeno[4,3-c]pyridin-3-yl)amino)pyridin-3-yl)imidazolidin-2-one], the values for the 50% inhibitory concentration (IC50) in test [1] and in test [2] were 0.001 to 0.01 µM and 0.01 to 0.1 µM, respectively.

On to `CC1(C)Oc2cc(N3CCCC3=O)ccc2-c2cnc(Nc3cnc4c(c3)N3C(=O)CC[C@H]3CO4)nc21` [Example 189, (S)-2-((5,5-dimethyl-8-(2-oxopyrrolidin-1-yl)-5H-chromeno[3,4-d]pyrimidin-3-yl)amino)-6,6a,7,8-tetrahydro-9H-pyrido[2,3-b]pyrrolo[1,2-d][1,4]oxazin-9-one], for which the IC50 is at most 0.001 µM in test [1] and 0.001 to 0.01 µM in test [2].

Turning to `CC1Oc2cc(N3CCCC3=O)ccc2-c2cnc(Nc3cncc(NC(=O)c4ccc(F)cc4)c3)cc21` (stereo not drawn) [Example 119, 4-fluoro-N-(5-((5-methyl-8-(2-oxopyrrolidin-1-yl)-5H-chromeno[4,3-c]pyridin-3-yl)amino)pyridin-3-yl)benzamide], the IC50 in test [1] and in test [2] was 0.01 to 0.1 µM throughout.

Turning to `CC1Oc2cc(N3CCCC3=O)ccc2-c2cnc(Nc3cncc(NC(=O)CCc4cccc(NC(=O)/C=C/CN(C)C)c4)c3)cc21` (stereo not drawn) [Example 176, (E)-4-(dimethylamino)-N-(3-(3-((5-((5-methyl-8-(2-oxopyrrolidin-1-yl)-5H-chromeno[4,3-c]pyridin-3-yl)amino)pyridin-3-yl)amino)-3-oxopropyl)phenyl)but-2-enamide], the 50% inhibitory concentration (IC50) in test [1] lay in the range of 0.001 to 0.01 µM; in test [2], 0.01 to 0.1 µM.

For `CN(C)C/C=C/C(=O)Nc1ccc(C(=O)Nc2cncc(Nc3cc4c(cn3)-c3ccc(N5CCCC5=O)cc3OC4(C)C)c2)cc1` [Example 198, (E)-N-(5-((5,5-dimethyl-8-(2-oxopyrrolidin-1-yl)-5H-chromeno[4,3-c]pyridin-3-yl)amino)pyridin-3-yl)-4-(4-(dimethylamino)but-2-enamido)benzamide], the half-inhibitory concentration (IC50) in test [1] and in test [2] was 0.001 to 0.01 µM in each case.

As for `CC1Oc2cc(N3CCCC3=O)c(F)cc2-c2cnc(Nc3cnc4c(c3)N3C(=O)C5(CC5)C[C@H]3CO4)cc21` (stereo partly drawn) [Example 154, (6a′S)-2′-((9-fluoro-5-methyl-8-(2-oxopyrrolidin-1-yl)-5H-chromeno[4,3-c]pyridin-3-yl)amino)-6a′,7′-dihydro-6′H,9′H-spiro[cyclopropane-1,8′-pyrido[2,3-b]pyrrolo[1,2-d][1,4]oxazin]-9′-one], the results for the half-inhibitory concentration (IC50) in test [1] and in test [2] were at most 0.001 µM and 0.001 to 0.01 µM, respectively.

As for `COC(=O)N1CCOc2ncc(Nc3cc4c(cn3)-c3cc(F)c(N5CCCC5=O)cc3OC4C)cc21` (stereo not drawn) [Example 150, methyl 7-((9-fluoro-5-methyl-8-(2-oxopyrrolidin-1-yl)-5H-chromeno[4,3-c]pyridin-3-yl)amino)-2,3-dihydro-1H-pyrido[2,3-b][1,4]oxazine-1-carboxylate], the half-maximal inhibitory concentration (IC50) in test [1] is at most 0.001 µM; in test [2], 0.001 to 0.01 µM.

The values are drawn from patent US11584763B2, “Chromenopyridine derivatives as phosphatidylinositol phosphate kinase inhibitors” (HIBERCELL, INC., priority 2017, dated 2023).
